Assay results taken from US10697970B2, “S100A9 levels for predicting lenalidomide and erythropoietin responsiveness” (H. LEE MOFFITT CANCER CENTER AND RESEARCH INSTITUTE, INC., priority 2015, dated 2020).

Columns and labels:
HepG2 cells = assay: Epo elaboration by HepG2 cells (ELISA); format: cell-based, human; conditions: for suppression of Epo production by the inflammatory protein alone: HepG2, vehicle control arm of lenalidomide experiment, S100A9 1 μg/ml or TNFα 10 ng/ml
Method: HepG2 cells, acquired from American Type Culture Collection (ATCC, Manassas, Va.), were grown in EMEM supplemented with 10% FBS and 1% penicillin/streptomycin solution. Cells were maintained at 37° C. under 5% CO2.
Quantitation of human S100A9/MRP14 in patient serum and supernatant of the HepG2 cell line was performed using CircuLex S100A9/MRP14 ELISA Kit (MBL, Nagano, Japan). Quantitative measurement of human TNFα and IL-1β from serum patients and supernatant of HepG2 cell line were performed using Human IL-1β ELISA Kit and Human TNFα ELISA Kit (Life Technologies, Carlsbad, Calif., USA). Quantitation of human Epo in patient serum and HepG2 cell line supernatant was performed using Human Erythropoietin ELISA kit (Stemcell Technologies, Vancouver, BC, Canada). All samples were performed in duplicate.

MDS patients = conditions: MDS patients; cited from earlier work
U2AF1-S34F mutant cells = assay: Nuclear β-catenin confocal microscopy in U2AF1-S34F mutant TF-1 cells; format: cell-based; conditions: 24 hours treatment
[1] = tested on: SF3B1-K700E mutant-expressing BM cells; assay: ASC staining flow cytometry (inflammasome formation) in SF3B1-K700E BM cells; format: cell-based, mouse; conditions: 24 hours treatment
Method: Staining was carried out as described ([…], et al. J Immunol. 2015 194(1):455-62). Briefly, cell pellets were resuspended in 1 mL of prewarmed BD Permeabilization Buffer III, and incubated on ice for 30 minutes. Cells were washed 2× with staining buffer. Following washing, cells were stained with rabbit-anti-ASC primary antibodies at a 1:1500 dilution and incubated for 90 minutes. Cells were washed, stained with secondary antibodies at a dilution of 1:1500, and incubated for 45 minutes. Cells were washed, and sample acquisitions were carried out using a BD LSR II flow cytometer and FACSDiva software.

[2] = tested on: SF3B1-K700E-expressing mutant BM cells; assay: ROS detection in SF3B1-K700E BM cells; format: cell-based, mouse
Source text: (§1) ROS were detected using CM-H2DCFDA and Cell ROX® Deep Red Reagent according to manufacturer's protocol (Life Technologies).

[3] = tested on: SF3B1-K700E mutant-expressing BM cells; assay: Nuclear β-catenin confocal microscopy in SF3B1-K700E BM cells; format: cell-based, mouse; conditions: 24 hours treatment
Method: (§2) MDS and normal donor BM-MNC and mouse BM cells were stained with 30×FAM-FLICA® Caspase-1 solution at a ratio of 1:30 for 2 hours at 37° C. Cells were washed and cytospins were generated using a 5 minutes centrifugation at 450 rpm. Slides were fixed at 37° C. for 10 minutes using BD Cytofix Fixation Buffer (BD Biosciences), and subsequently washed using PBS. Cells were permeabilized with 0.1% Triton X-100/2% BSA in PBS for 15 minutes at room temperature. After washing with PBS, cells were blocked using 2% BSA in PBS for 30 minutes at room temperature, and washed again. Cells were incubated with the appropriate primary antibody overnight (1:400 for NLRP3, 1:20 for β-catenin) at 4° C. The next day, cells were washed with PBS and incubated with the appropriate secondary antibodies (1:500) for 1 hour at room temperature. After washing, cells were covered with ProLong Gold Antifade Reagent with DAPI prior to the addition of a coverslip (Life Technologies). Co-localization of a-caspase-1 with NLRP3 inflammasome complexes was assessed using a Leica TCS SP5 AOBS Laser Scanning Confocal microscope (Leica Microsystems). Analysis of the inflammasome images was performed with Definiens Developer 2.0 (Definiens AG). The software was used to segment cells based on brightness and size thresholds, followed by a watershed segmentation algorithm. […]

normal BM-MNC [4] = assay: Nuclear β-catenin confocal microscopy in normal BM-MNC; format: cell-based, human
Method: as §2

U937 cells [5] = assay: Pyroptosis / active caspase-1 flow cytometry in U937 cells treated with rhS100A9; format: cell-based
Method: Monocytic U937 cells were treated with the indicated concentrations of rhS100A9 for 24 hours, or with 5 μg/mL rhS100A9 for the indicated time points. Subsequently, cells were stained with 30×FAM-FLICA® Caspase-1 solution at a ratio of 1:30 for 2 hours at 37° C. Cells were washed, resuspended in 1× binding buffer, and stained with Annexin-V:PE at a dilution of 1:30 for 15 minutes at room temperature. 1× binding buffer was added to a final volume of 350 μL. Sample acquisitions were carried out using a BD FACSCalibur flow cytometer (BD Biosciences). Data were analyzed using FlowJo 9.7.5 software.

U937 cells [6] = assay: a-caspase-1/NLRP3 confocal microscopy (inflammasome formation) in U937 cells; format: cell-based; conditions: U937, 5 μg/mL rhS100A9, 24 hours
normal BM-MNC [7] = assay: qPCR of pyroptosis-associated genes in normal BM-MNC treated with rhS100A9; format: cell-based, human; conditions: normal BM-MNC (n=2), 1 μg/mL rhS100A9, 24 hours
Method: RNA was isolated from BM-MNC using the RNeasy Mini Kit (Qiagen). cDNA was produced using the iScript cDNA Synthesis Kit (Bio-Rad). Sequences for primers can be found in Table 1. GAPDH mRNA was used for transcript normalization. cDNA was amplified using the iQ SYBR Green Supermix and the CFX96 Real-Time PCR Detection System (Bio-Rad). PCR conditions were as follows: 10 minutes at 95° C., followed by 40 cycles of amplification (15 seconds at 95° C. and 1 minute at 60° C.). Relative gene expression was calculated using the […] method.

normal BM-MNC [8] = assay: a-caspase-1/NLRP3 confocal microscopy in normal BM-MNC treated with rhS100A9; format: cell-based, human; conditions: 5 μg/mL rhS100A9, 24 hours
Method: (§3) MDS and normal donor BM-MNC and mouse BM cells were stained with 30×FAM-FLICA® Caspase-1 solution at a ratio of 1:30 for 2 hours at 37° C. Cells were washed and cytospins were generated using a 5 minutes centrifugation at 450 rpm. Slides were fixed at 37° C. for 10 minutes using BD Cytofix Fixation Buffer (BD Biosciences), and subsequently washed using PBS. Cells were permeabilized with 0.1% Triton X-100/2% BSA in PBS for 15 minutes at room temperature. After washing with PBS, cells were blocked using 2% BSA in PBS for 30 minutes at room temperature, and washed again. Cells were incubated with the appropriate primary antibody overnight (1:400 for NLRP3, 1:20 for β-catenin) at 4° C. The next day, cells were washed with PBS and incubated with the appropriate secondary antibodies (1:500) for 1 hour at room temperature. After washing, cells were covered with ProLong Gold Antifade Reagent with DAPI prior to the addition of a coverslip (Life Technologies). Co-localization of a-caspase-1 with NLRP3 inflammasome complexes was assessed using a Leica TCS SP5 AOBS Laser Scanning Confocal microscope (Leica Microsystems). Analysis of the inflammasome images was performed with Definiens Developer 2.0 (Definiens AG). The software was used to segment cells based on brightness and size thresholds, followed by a watershed segmentation algorithm. Intensity values and Pearson's correlation coefficient were extracted from the segmented cells. For β-catenin image analysis, confocal images were imported into Definiens Tissue Studio v3.0, 64 Dual in .tif format. Cells were separated from background using the RGB thresholds. Nuclei were identified by setting thresholds in the DAPI channel. Typical cells averaged 60 microns. The red intensity (β-catenin) in the nucleus and cytoplasm was established by setting thresholds to low, medium and high in the red channel on a scale of 0-255 in the red channel.

U937 cells [9] = assay: Pore formation assay (ethidium bromide uptake) in U937 cells; format: cell-based; conditions: U937, 12.5 μg/mL EB, 5 μg/mL rhS100A9
[10] = tested on: BM cells isolated from WT mice; assay: a-caspase-1/NLRP3 confocal microscopy in WT mouse BM cells treated with rhS100A9; format: cell-based; conditions: 5 μg/mL rhS100A9, 24 hours
Method: as §3

U937 cells [11] = assay: ROS detection by flow cytometry in U937 cells; format: cell-based; conditions: U937, 5 μg/mL rhS100A9, 24 hours, compared to untreated cells
Source text: as §1

U937 cells [12] = assay: Comet assay (DNA damage) in U937 cells; format: cell-based; conditions: U937, 5 μg/mL rhS100A9, 24 hours, compared to untreated cells
Method: Monocytic U937 cells were treated with 5 μg/mL rhS100A9 for 24 hr. DNA damage was measured by single cell gel electrophoresis using alkaline CometAssay® according to manufacturer's protocol (Trevigen Inc.).

U937 cells [13] = assay: Nuclear β-catenin confocal microscopy in U937 cells; format: cell-based; conditions: U937, 5 μg/mL rhS100A9, 24 hours, compared to untreated cells
[14] = U937, increasing concentrations of rhS100A9, 24 hours

IL-1β: inflammatory cytokine interleukin-1β purchased from Sigma-Aldrich
reduction in Epo elaboration (HepG2 cells; HepG2, 10 ng/ml, 24 h exposure): 60%

TNFα
reduction in Epo elaboration (HepG2 cells; HepG2, 10 ng/ml, 24 h exposure): 40% | suppression of Epo production by the inflammatory protein alone (HepG2 cells): 30%

erythropoietin: erythropoietin treatment for anemia in MDS
patients with MDS in whom treatment may improve anemia (MDS patients): 15-20%

c1ccc2c(c1)[I+]c1ccccc1-2 [DPI]
β-catenin activation in mutant cells (U2AF1-S34F mutant cells): effectively reduced | inflammasome formation (ASC) [1]: significantly reduced | mean percentage of ROS+ cells and ROS MFI [2]: extinguished below the level of WT controls | percentage of cells with elevated levels of nuclear β-catenin [3]: significantly reduced

CC(=O)N[C@@H](CS)C(=O)O [NAC, N-acetylcysteine]
S100A9-triggered nuclear translocation of β-catenin (normal BM-MNC [4]; normal BM-MNC treated with S100A9 plus anti-oxidant): abolished | β-catenin activation in mutant cells (U2AF1-S34F mutant cells): effectively reduced | inflammasome formation (ASC) [1]: significantly reduced | mean percentage of ROS+ cells and ROS MFI [2]: extinguished below the level of WT controls | percentage of cells with elevated levels of nuclear β-catenin [3]: significantly reduced

rhS100A9: Recombinant human S100A9, DAMP/alarmin protein, ligand for CD33 and TLR4, generated as previously described
activation of caspase-1 (U937 cells [5]; U937, 5 μg/mL rhS100A9 over time): time-dependent increase | a-caspase-1 MFI and percentage of a-caspase-1+ cells (U937 cells [5]; [14]): corresponding increase | fraction of pyroptotic cells (U937 cells [5]; [14]): concentration-dependent increase | levels of NLRP3 inflammasome complexes (U937 cells [6]): markedly increased | expression of pyroptosis-associated genes (normal BM-MNC [7]): significantly up-regulated | NLRP3 levels induced (normal BM-MNC [8]): 47.1 fold | a-caspase-1 levels induced (normal BM-MNC [8]): 2.5 fold | formation of NLRP3 inflammasomes (normal BM-MNC [8]): 2.9 fold | uptake of ethidium bromide (U937 cells [9]): rapid and substantial uptake | inflammasome complexes [10]: marked induction | MFI of NLRP3 ([10]; versus controls): significantly increased | MFI of a-caspase-1 ([10]; versus controls): significantly increased | increase in mean percentage of ROS-positive cells (U937 cells [11]): 2.9 fold | increase in DNA damage (U937 cells [12]): 4.1 fold | levels of nuclear (activated) β-catenin (U937 cells [13]): marked increases | levels of nuclear β-catenin (normal BM-MNC [4]; normal BM-MNC, 5 μg/mL rhS100A9, 24 hours, compared to controls): elevated levels | reduction in Epo elaboration (HepG2 cells; HepG2, 1 μg/ml, 24 h exposure): 95% | Epo elaboration (HepG2 cells; HepG2, 10 to 20 μg/ml, 24 h exposure): completely suppressed | suppression of Epo production by the inflammatory protein alone (HepG2 cells): 95%
